Measurements from the supplement of paper PMC6045584.
± gives the standard deviation of the averaged measurements.

compound: C#Cc1cccc(Nc2ncnc3cc(OCCOC)c(OCCOC)cc23)c1 [ERLOTINIB]; test: surviving fraction relative to DMSO-only wells; higher = less growth inhibition; conditions: 50 nM; exposure time: 5 days
Summary of the method: (§1)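 Tumour cell lines in log phase were plated in 384-well plates at 250–500 cells per well, then, after 24 hours, exposed continuously for five days to inhibitors at 0.5, 1, 5, 10, 50, 100, 500 and 1000 nM. Viability came from CellTiter-Glo luminescence, and surviving fraction is that signal normalised to the median of DMSO-only wells. Plates were read after 10 minutes at room temperature, and each line, screened three times, was kept only when replicate Pearson r was >0.7 and median Z' was >0.3.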

Row | Test System | surviving fraction
1 | OS25HAL BONE | 1.09 ± 0.063
2 | S68 BREAST | 1.14 ± 0.25
3 | SAOS2 BONE | 1.26 ± 0.12
4 | SCC47 HEADNECK | 1.15 ± 0.051
5 | SCC90 HEADNECK | 0.94 ± 0.11
6 | SG27 HEADNECK | 1.2 ± 0.082
7 | SG31 HEADNECK | 1.08 ± 0.18
8 | SG32 HEADNECK | 1.12 ± 0.14
9 | SG43 HEADNECK | 0.689 ± 0.13
10 | SIHA CERVIX | 1.1 ± 0.067
11 | SJSA1 BONE | 1.02 ± 0.032
12 | SKBR3 BREAST | 1.11 ± 0.024
13 | SNU475 LIVER | 0.957 ± 0.03
14 | SUM44 BREAST | 1.34 ± 0.49
15 | SUM149 BREAST | 0.922 ± 0.13
16 | SUM149.B1*.S BREAST | 1.15 ± 0.048
17 | SUM159 BREAST | 1.07 ± 0.013
18 | SYO1 SYNOVIAL | 1.01 ± 0.023
19 | T47D BREAST | 1.18 ± 0.039
20 | U2OS BONE | 1.11 ± 0.015
21 | VCAP PROSTATE | 1.13 ± 0.093
22 | VP229 BREAST | 1.06 ± 0.091
23 | YAMATO SYNOVIAL | 1.39 ± 0.071
24 | ZR751 BREAST | 0.926 ± 0.14

same assay, conditions: 100 nM; exposure time: 5 days

Row | Test System | surviving fraction
25 | MDAMB453 BREAST | 1.06 ± 0.022
26 | MDAMB468 BREAST | 1.105 ± 0.011
27 | MFM223 BREAST | 1.2 ± 0.039
28 | MG63 BONE | 1.1 ± 0.047
29 | MHM BONE | 1.064 ± 0.001
30 | NCIH441 LUNG | 1.11 ± 0.1
31 | NOS1 BONE | 1.14 ± 0.094
32 | OS25HAL BONE | 1.17 ± 0.043
33 | OSHN BONE | 1.163 ± 0.0072
34 | PCI30 HEADNECK | 0.951 ± 0.1
35 | RDES SOFT TISSUE | 1.28 ± 0.1
36 | S68 BREAST | 1.11 ± 0.3
37 | SAOS2 BONE | 1.23 ± 0.051
38 | SCC36 HEADNECK | 0.82 ± 0.033
39 | SCC47 HEADNECK | 1.07 ± 0.021
40 | SCC90 HEADNECK | 0.82 ± 0.086
41 | SG27 HEADNECK | 1.1 ± 0.052
42 | SG28 HEADNECK | 1.097 ± 0.0071

Row | Test System | surviving fraction
43 | SG31 HEADNECK | 0.762 ± 0.059
44 | SG32 HEADNECK | 1.11 ± 0.092
45 | SG43 HEADNECK | 0.458 ± 0.16
46 | SIHA CERVIX | 1.08 ± 0.099
47 | SJSA1 BONE | 1.76 ± 0.13
48 | SKBR3 BREAST | 1.05 ± 0.08
49 | SNU475 LIVER | 1 ± 0.047
50 | SUM44 BREAST | 1.32 ± 0.36
51 | SUM149 BREAST | 0.75 ± 0.03
52 | SUM149.B1*.S BREAST | 1.08 ± 0.013
53 | SUM159 BREAST | 1.05 ± 0.015
54 | SYO1 SYNOVIAL | 1.01 ± 0.015
55 | T47D BREAST | 1.17 ± 0.048
56 | U2OS BONE | 1.04 ± 0.028
57 | VCAP PROSTATE | 1.08 ± 0.084
58 | VP229 BREAST | 0.825 ± 0.048
59 | YAMATO SYNOVIAL | 1.35 ± 0.014
60 | ZR751 BREAST | 0.881 ± 0.14

same assay, conditions: 500 nM; exposure time: 5 days

Row | Test System | surviving fraction
61 | MDAMB468 BREAST | 0.902 ± 0.06
62 | MFM223 BREAST | 1.22 ± 0.052
63 | MG63 BONE | 1.07 ± 0.066
64 | MHM BONE | 1.038 ± 0.01
65 | NCIH441 LUNG | 0.992 ± 0.086
66 | NOS1 BONE | 0.827 ± 0.16
67 | NY BONE | 0.983 ± 0.01
68 | OS25HAL BONE | 1.09 ± 0.027
69 | OSHN BONE | 1.161 ± 0.001
70 | PCI30 HEADNECK | 0.538 ± 0.036
71 | RDES SOFT TISSUE | 1.24 ± 0.025
72 | S68 BREAST | 0.743 ± 0.079
73 | SAOS2 BONE | 1.09 ± 0.094
74 | SCC36 HEADNECK | 0.548 ± 0.059
75 | SCC47 HEADNECK | 0.822 ± 0.052
76 | SCC90 HEADNECK | 0.585 ± 0.049
77 | SG27 HEADNECK | 1.1 ± 0.037
78 | SG28 HEADNECK | 0.546 ± 0.052

Row | Test System | surviving fraction
79 | SG31 HEADNECK | 0.716 ± 0.2
80 | SG32 HEADNECK | 0.795 ± 0.067
81 | SG43 HEADNECK | 0.265 ± 0.032
82 | SJSA1 BONE | 1.75 ± 0.1
83 | SKBR3 BREAST | 1.04 ± 0.15
84 | SNU475 LIVER | 0.909 ± 0.012
85 | SUM44 BREAST | 1.39 ± 0.53
86 | SUM149 BREAST | 0.454 ± 0.042
87 | SUM149.B1*.S BREAST | 1.07 ± 0.069
88 | SUM159 BREAST | 1.07 ± 0.012
89 | SYO1 SYNOVIAL | 1.02 ± 0.028
90 | T47D BREAST | 1.16 ± 0.084
91 | U2OS BONE | 1.02 ± 0.014
92 | VCAP PROSTATE | 1.11 ± 0.05
93 | VP229 BREAST | 0.568 ± 0.048
94 | YAMATO SYNOVIAL | 1.31 ± 0.074
95 | ZR751 BREAST | 0.71 ± 0.18

same assay, conditions: 1000 nM; exposure time: 5 days

Row | Test System | surviving fraction
96 | MDAMB453 BREAST | 1.01 ± 0.026
97 | MDAMB468 BREAST | 0.748 ± 0.04
98 | MFM223 BREAST | 1.16 ± 0.033
99 | MHM BONE | 0.998 ± 0.03
100 | NCIH441 LUNG | 1.17 ± 0.12
101 | NOS1 BONE | 0.561 ± 0.011
102 | OS25HAL BONE | 1 ± 0.035
103 | OSHN BONE | 1.1173 ± 0.0011
104 | PCI30 HEADNECK | 0.508 ± 0.029
105 | RDES SOFT TISSUE | 1.32 ± 0.1
106 | S68 BREAST | 0.564 ± 0.03
107 | SAOS2 BONE | 1.05 ± 0.075
108 | SCC36 HEADNECK | 0.397 ± 0.038
109 | SCC47 HEADNECK | 0.724 ± 0.037
110 | SCC90 HEADNECK | 0.534 ± 0.057
111 | SG27 HEADNECK | 1.1 ± 0.065

Row | Test System | surviving fraction
112 | SG28 HEADNECK | 1.23 ± 0.1
113 | SG31 HEADNECK | 0.667 ± 0.21
114 | SG32 HEADNECK | 1.26 ± 0.28
115 | SG43 HEADNECK | 0.335 ± 0.097
116 | SIHA CERVIX | 1.06 ± 0.038
117 | SKBR3 BREAST | 0.874 ± 0.06
118 | SNU475 LIVER | 0.88 ± 0.057
119 | SUM44 BREAST | 1.29 ± 0.38
120 | SUM149 BREAST | 0.434 ± 0.033
121 | SUM149.B1*.S BREAST | 1.08 ± 0.079
122 | SUM159 BREAST | 1.06 ± 0.016
123 | T47D BREAST | 1.12 ± 0.039
124 | VCAP PROSTATE | 1.09 ± 0.093
125 | VP229 BREAST | 0.413 ± 0.06
126 | YAMATO SYNOVIAL | 1.2 ± 0.15
127 | ZR751 BREAST | 0.766 ± 0.045

compound: COc1cc([C@@H]2c3cc4c(cc3[C@@H](O[C@@H]3O[C@@H]5CO[C@@H](C)O[C@H]5[C@H](O)[C@H]3O)[C@H]3COC(=O)[C@H]23)OCO4)cc(OC)c1O [ETOPOSIDE]; test: as above; conditions: 0.5 nM; exposure time: 5 days
Summary of the method: as §1

Row | Test System | surviving fraction
128 | MDAMB453 BREAST | 1.07 ± 0.098
129 | MDAMB468 BREAST | 1.1 ± 0.11
130 | MFM223 BREAST | 1.1 ± 0.056
131 | MG63 BONE | 1.01 ± 0.033
132 | MHM BONE | 0.994 ± 0.022
133 | NCIH441 LUNG | 1.03 ± 0.15
134 | NOS1 BONE | 1.11 ± 0.12
135 | NY BONE | 1.01 ± 0.033
136 | OS25HAL BONE | 1 ± 0.018
137 | OSHN BONE | 1.05 ± 0.025
138 | PCI30 HEADNECK | 0.943 ± 0.1
139 | RDES SOFT TISSUE | 1.08 ± 0.022
140 | S68 BREAST | 0.939 ± 0.27
141 | SAOS2 BONE | 1.03 ± 0.027
